US20110294828A1, “PROCESS FOR PREPARING A POLYMORPH OF THE CHOLINE SALT OF A PYRIMIDIN-5-YL ACETIC ACID DERIVATIVE” (BOEHRINGER INGELHEIM INTERNATIONAL GMBH, priority 2009, published 2011)
Where a name gives a salt, the structure may show the parent alone.

What was measured:
[1] = Dynamic vapor sorption/desorption (DVS); assay type: physicochemical; conditions: up to 75% relative humidity at 25° C.
Protocol: Vapor sorption/desorption was carried out using Surface Measurement Systems DVS-HT. Samples were placed into a foil insert placed on a sample pan. […] The equilibrium point of each step was reached when 0.002% of weight change was reached.

[2] = biological target: T1, CRTH2 (Homo sapiens, UniProt Q9Y5Y4); assay: CRTH2 antagonistic activity (statement only, no method given)
T1 sequence (Q9Y5Y4 1-395): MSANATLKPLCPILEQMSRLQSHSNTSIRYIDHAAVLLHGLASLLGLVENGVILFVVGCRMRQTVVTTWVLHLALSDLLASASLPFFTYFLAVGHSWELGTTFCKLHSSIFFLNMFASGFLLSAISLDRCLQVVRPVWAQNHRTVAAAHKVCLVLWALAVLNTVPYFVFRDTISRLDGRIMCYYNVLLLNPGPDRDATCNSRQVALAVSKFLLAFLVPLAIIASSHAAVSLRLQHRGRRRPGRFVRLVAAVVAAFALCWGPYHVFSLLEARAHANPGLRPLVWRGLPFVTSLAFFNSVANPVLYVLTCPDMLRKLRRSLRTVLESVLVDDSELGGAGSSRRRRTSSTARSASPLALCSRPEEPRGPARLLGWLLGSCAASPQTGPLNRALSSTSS

[3] = Particle size distribution (Sympatec HELOS, dry powder dispersion); assay type: physicochemical; parameters: particle size D90: dose or concentration left out as unconfirmed; conditions: for Particle size distribution (PSD) % <10 μM / Particle size distribution (PSD) % <50 μM / particle size D90: crystalline product as isolated, no milling; for particle size D90: the values are: particle size D90
Protocol: Determination of particle size distribution was carried out using a Sympatec HELOS System H1588 with a RODOS/M Dry Powder Dispersion System.

## CN(C)c1nc(Cc2ccc(NC(=O)c3ccc(C(F)(F)F)cc3)cc2)nc(N(C)C)c1CC(=O)O [choline salt of [4,6-bis(dimethylamino)-2-(4-{[4-(trifluoromethyl)benzoyl]amino}benzyl)pyrimidin-5-yl]acetic acid]
[1]
  hygroscopicity (DVS isotherm, FIG. 3): non-hygroscopic
[2]
  CRTH2 antagonistic activity: excellent
[3]; listed as Comp. Ex. 2
  Particle size distribution (PSD) % <10 μM: 11.57
  Particle size distribution (PSD) % <50 μM: 60.13
  particle size D90: 120 µm
[3]; listed as Comp. Ex. 3
  Particle size distribution (PSD) % <10 μM: 6.87
  Particle size distribution (PSD) % <50 μM: 57.62
  particle size D90: 181 µm
[3]; listed as Comp. Ex. 4
  Particle size distribution (PSD) % <10 μM: 3.01
  Particle size distribution (PSD) % <50 μM: 13.62
  particle size D90: 38 µm
[3]; listed as Ex. 1
  Particle size distribution (PSD) % <10 μM: 5.13
  Particle size distribution (PSD) % <50 μM: 16.67
  particle size D90: 35.5 µm
[3]; seeding step with seeding particles of which 90% have a diameter of less than 50 μm
  diameter of 90% of the choline salt particles: less than 100 μm
